{"source": "ChEMBL document CHEMBL1201862", "about": "“PubChem BioAssay data set” (2004)", "key": {"Wee1-like protein kinase": {"target": "Wee1-like protein kinase (Homo sapiens, UniProt P30291)", "sequence (P30291 whole entry)": "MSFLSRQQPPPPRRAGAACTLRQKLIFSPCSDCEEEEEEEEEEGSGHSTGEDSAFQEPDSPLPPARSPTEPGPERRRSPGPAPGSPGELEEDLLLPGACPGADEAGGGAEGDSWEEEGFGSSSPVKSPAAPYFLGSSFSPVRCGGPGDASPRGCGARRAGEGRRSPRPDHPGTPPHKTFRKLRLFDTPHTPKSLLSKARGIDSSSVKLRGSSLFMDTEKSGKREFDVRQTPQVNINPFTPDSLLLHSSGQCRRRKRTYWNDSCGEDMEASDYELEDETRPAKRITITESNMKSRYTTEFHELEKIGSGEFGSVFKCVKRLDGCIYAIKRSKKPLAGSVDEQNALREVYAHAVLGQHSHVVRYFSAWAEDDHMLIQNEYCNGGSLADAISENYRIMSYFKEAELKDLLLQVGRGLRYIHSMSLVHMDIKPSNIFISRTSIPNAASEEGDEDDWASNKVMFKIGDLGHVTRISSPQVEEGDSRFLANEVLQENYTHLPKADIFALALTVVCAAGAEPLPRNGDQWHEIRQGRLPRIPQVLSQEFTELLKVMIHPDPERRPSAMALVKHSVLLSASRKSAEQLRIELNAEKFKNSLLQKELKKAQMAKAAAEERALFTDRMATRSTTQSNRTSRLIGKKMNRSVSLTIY", "assay": "Dose Response Cell-based Assay for Inhibitors of Wee1 Degradation. [Related pubchem assays: 1410, 1321 ]", "assay_type": "functional"}, "INS1": {"tested_on": "INS1", "assay": "beta cell apoptosis inhibitors, cytokine rescue, dose response, luminescence, retest (AID 449756);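 also: cell death triggered by IL-1 beta plus TNF-alpha plus IFN-gamma mixture; protective hits raise ATP signal compared with cytokine alone wells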", "assay_type": "functional, cell-based", "conditions": "Rattus norvegicus"}, "[1]": {"assay": "cytotoxicity in HEK-293T cells, dose response, cytotoxicity control for TCR NF-kB inhibitor project, luminescence, T-cell screen hits (AID 489026);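 also: cells exposed to compound about 14 hours before the viability readout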", "assay_type": "functional, cell-based"}, "[2]": {"target": "Sphingosine 1-phosphate receptor 1 (Homo sapiens, UniProt P21453)", "sequence (P21453 whole entry)": "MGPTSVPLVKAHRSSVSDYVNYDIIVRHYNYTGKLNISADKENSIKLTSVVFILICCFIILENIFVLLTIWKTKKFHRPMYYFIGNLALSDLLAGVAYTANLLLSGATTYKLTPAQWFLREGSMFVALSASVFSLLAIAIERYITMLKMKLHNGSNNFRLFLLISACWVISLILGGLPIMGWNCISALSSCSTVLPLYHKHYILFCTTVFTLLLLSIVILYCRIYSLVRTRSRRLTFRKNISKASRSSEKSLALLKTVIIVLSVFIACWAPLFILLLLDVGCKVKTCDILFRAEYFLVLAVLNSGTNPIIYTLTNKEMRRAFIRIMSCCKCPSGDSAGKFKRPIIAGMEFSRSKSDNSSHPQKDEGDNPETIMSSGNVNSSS", "assay_type": "functional"}, "[3]": {"target": "Sphingosine 1-phosphate receptor 2 (Homo sapiens, UniProt O95136)", "sequence (O95136 whole entry)": "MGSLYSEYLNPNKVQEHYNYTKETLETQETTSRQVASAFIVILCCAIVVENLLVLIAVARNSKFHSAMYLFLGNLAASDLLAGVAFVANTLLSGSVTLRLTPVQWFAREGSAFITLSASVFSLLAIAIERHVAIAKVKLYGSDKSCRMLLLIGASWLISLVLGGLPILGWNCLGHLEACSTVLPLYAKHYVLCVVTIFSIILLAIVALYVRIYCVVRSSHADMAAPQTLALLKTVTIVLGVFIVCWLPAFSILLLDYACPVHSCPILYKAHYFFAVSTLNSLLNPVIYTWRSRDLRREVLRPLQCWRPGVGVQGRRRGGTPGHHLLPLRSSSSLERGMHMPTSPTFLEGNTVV", "assay": "Dose Response Cell Based Assay for Antagonists of the S1P2 Receptor. [Related pubchem assays: 856, 736 ]", "assay_type": "functional"}, "[4]": {"target": "G2/mitotic-specific cyclin-B1 (Homo sapiens, UniProt P14635)", "sequence (P14635 whole entry)": "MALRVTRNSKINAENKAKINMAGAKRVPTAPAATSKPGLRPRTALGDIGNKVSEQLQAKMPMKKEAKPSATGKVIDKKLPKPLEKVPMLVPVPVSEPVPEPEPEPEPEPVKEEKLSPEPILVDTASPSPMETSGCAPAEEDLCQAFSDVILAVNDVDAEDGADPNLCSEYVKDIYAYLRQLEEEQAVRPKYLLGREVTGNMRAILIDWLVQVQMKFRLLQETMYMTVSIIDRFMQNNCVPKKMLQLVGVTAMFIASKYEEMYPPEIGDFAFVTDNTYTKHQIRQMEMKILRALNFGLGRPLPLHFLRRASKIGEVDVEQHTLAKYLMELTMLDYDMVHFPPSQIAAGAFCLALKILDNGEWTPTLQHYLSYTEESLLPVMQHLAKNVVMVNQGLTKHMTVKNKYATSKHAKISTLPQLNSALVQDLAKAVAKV", "assay": "Counterscreen assay for inhibitors of Wee1 degradation: dose response cell-based assay to identify inhibitors of cyclin B degradation. [Related pubchem assays: 1410, 1321 ]", "assay_type": "functional"}, "[5]": {"assay": "microbe, parasite or virus in culture", "assay_type": "functional", "conditions": "Mycobacterium tuberculosis"}, "[6]": {"target": "Sphingosine 1-phosphate receptor 4 (Homo sapiens, UniProt O95977)", "sequence (O95977 whole entry)": "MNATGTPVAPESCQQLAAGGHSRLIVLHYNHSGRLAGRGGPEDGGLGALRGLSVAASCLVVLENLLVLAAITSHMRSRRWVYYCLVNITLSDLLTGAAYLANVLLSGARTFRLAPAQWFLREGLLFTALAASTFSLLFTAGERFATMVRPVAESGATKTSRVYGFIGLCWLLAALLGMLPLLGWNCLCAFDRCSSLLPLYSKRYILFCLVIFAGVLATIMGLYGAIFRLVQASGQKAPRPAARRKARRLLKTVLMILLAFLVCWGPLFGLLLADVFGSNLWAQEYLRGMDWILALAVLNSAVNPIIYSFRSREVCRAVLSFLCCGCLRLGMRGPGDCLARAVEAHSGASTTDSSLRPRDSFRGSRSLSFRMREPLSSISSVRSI", "assay": "Fluorescence dose response cell-based high throughput screening assay for antagonists of the Sphingosine 1-Phosphate Receptor 4 (S1P4). [Related pubchem assays: 1524 (Confirmation in triplicates.), 1510 (Primary screen.)]", "assay_type": "functional"}, "[7]": {"target": "T1, Heat shock factor protein 1 (Mus musculus, UniProt P38532)", "T1 sequence (P38532 whole entry)": "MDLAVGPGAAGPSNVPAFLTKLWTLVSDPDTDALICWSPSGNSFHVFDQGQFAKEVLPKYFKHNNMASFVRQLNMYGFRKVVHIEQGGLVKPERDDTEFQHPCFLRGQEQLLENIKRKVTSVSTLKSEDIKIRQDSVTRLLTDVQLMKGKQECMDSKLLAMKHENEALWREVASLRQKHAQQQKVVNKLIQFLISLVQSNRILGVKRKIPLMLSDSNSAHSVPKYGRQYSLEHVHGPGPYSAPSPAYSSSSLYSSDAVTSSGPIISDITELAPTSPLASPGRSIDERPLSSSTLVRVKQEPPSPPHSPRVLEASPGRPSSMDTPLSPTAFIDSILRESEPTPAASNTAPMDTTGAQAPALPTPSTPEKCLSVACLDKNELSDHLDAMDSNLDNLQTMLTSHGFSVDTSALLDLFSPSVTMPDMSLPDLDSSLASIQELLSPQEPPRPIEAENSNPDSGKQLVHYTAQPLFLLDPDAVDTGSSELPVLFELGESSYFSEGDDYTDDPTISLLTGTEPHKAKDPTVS", "assay": "inhibition of MG132-induced HSE-luciferase signal, confirmation, cell-based, NIH3T3, luminescence, dose retest (AID 2382);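 also: NIH3T3 fibroblasts with HSF1-driven luciferase reporter stressed by proteasome inhibitor MG132; luminescence from HSF1-driven luciferase expression after 8 hours of MG132 stress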", "assay_type": "functional"}, "HeLa": {"tested_on": "HeLa", "assay": "Cytotoxicity counterscreen assay for transcriptional activators of heat shock protein 70 (Hsp70). [Related pubchem assays: 1203, 1252 ]", "assay_type": "functional", "conditions": "Homo sapiens"}, "[8]": {"target": "T2, Type-1 angiotensin II receptor (Homo sapiens, UniProt P30556)", "T2 sequence (P30556 whole entry)": "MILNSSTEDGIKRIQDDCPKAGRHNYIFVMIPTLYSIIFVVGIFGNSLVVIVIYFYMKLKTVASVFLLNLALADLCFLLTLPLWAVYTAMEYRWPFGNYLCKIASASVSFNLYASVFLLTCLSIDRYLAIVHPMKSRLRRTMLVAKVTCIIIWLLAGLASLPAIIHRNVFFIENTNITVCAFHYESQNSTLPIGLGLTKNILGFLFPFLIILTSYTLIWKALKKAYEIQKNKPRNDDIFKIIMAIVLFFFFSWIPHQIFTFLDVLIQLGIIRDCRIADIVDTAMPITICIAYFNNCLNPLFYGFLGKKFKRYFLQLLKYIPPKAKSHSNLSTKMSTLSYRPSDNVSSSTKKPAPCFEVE", "assay": "AT1 receptor antagonists, dose response, selectivity assay for APJ receptor antagonist project, cell-based, uHTS hits (AID 463214);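 also: antagonist potency against angiotensin II stimulated AT1 response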", "assay_type": "functional"}, "Beta-galactosidase [9]": {"target": "T3, Beta-galactosidase (Escherichia coli, UniProt Q8VNN2)", "T3 sequence (Q8VNN2 whole entry)": "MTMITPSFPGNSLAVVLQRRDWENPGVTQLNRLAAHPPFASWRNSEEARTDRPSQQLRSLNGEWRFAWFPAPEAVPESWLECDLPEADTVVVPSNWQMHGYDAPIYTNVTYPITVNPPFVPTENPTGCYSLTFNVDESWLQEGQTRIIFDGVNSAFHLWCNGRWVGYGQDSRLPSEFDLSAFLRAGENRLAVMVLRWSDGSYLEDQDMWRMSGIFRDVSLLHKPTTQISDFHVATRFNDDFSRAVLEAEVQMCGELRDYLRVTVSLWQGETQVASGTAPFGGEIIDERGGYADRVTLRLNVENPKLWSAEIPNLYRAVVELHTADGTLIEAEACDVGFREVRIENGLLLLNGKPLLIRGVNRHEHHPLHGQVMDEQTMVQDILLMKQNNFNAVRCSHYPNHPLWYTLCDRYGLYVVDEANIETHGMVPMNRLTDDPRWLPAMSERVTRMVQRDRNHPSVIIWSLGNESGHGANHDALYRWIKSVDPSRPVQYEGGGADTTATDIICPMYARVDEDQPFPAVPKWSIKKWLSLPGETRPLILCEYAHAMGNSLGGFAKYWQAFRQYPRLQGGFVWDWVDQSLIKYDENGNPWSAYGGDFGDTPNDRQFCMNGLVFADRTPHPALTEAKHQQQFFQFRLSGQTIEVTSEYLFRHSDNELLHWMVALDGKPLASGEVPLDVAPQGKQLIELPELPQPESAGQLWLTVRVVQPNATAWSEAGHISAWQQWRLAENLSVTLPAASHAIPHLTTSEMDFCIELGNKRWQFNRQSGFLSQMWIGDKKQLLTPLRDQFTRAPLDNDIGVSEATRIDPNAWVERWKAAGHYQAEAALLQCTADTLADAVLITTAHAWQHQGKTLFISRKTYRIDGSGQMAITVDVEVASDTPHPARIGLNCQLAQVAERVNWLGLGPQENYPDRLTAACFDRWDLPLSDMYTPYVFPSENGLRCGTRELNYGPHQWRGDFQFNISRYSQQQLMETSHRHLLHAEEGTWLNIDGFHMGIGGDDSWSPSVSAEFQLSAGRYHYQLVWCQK", "assay": "PubChem AID 485352", "assay_type": "functional"}, "[10]": {"target": "Voltage-gated N-type calcium channel alpha-1B subunit/Amyloid beta A4 precursor protein-binding family A member 1 (Homo sapiens, UniProt Q00975+Q02410)", "assay": "disruptors of Mint-PDZ/N-type channel peptide interaction – biochemical, HTRF, set 2, SAR follow-up (AID 434980)", "assay_type": "functional"}, "[11]": {"target": "Dual specificity protein phosphatase 3 (Homo sapiens, UniProt P51452)", "sequence (P51452 whole entry)": "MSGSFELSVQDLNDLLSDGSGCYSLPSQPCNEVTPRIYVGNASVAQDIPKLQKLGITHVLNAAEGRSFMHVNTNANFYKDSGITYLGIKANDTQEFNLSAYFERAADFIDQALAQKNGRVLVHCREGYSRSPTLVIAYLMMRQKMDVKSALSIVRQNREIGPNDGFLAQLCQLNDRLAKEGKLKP", "assay": "VHR1 inhibitor Ki determination, SAR follow-up, biochemical, colorimetric (AID 2004)"}, "[12]": {"assay": "control 3'UTR Renilla luciferase suppression, dose response, counter-screen for Shn3 inhibitor project, cell-based, Clone20-Shn3RL, cherry-picked (AID 624133)", "assay_type": "functional"}, "Beta-galactosidase [13]": {"target": "T3, Beta-galactosidase", "assay": "beta-galactosidase enzyme inhibitors and activators, dose response, artefact control for CCR6 antagonist project, biochemical, E. coli enzyme, set 3 (AID 504712)", "assay_type": "functional"}, "[14]": {"assay": "HepG2 cell cytotoxicity, dose response, cytotoxicity control for Shn3 inhibitor project, CellTiter-Glo, cherry-picked (AID 624134)", "assay_type": "functional, cell-based"}, "[15]": {"assay": "Shn3 3'UTR reporter inhibitors, dose response, cell-based, Clone20 osteoblasts, firefly luciferase, cherry-picked (AID 624132)", "assay_type": "functional"}, "[16]": {"target": "C-C chemokine receptor type 6 (Homo sapiens, UniProt P51684)", "sequence (P51684 whole entry)": "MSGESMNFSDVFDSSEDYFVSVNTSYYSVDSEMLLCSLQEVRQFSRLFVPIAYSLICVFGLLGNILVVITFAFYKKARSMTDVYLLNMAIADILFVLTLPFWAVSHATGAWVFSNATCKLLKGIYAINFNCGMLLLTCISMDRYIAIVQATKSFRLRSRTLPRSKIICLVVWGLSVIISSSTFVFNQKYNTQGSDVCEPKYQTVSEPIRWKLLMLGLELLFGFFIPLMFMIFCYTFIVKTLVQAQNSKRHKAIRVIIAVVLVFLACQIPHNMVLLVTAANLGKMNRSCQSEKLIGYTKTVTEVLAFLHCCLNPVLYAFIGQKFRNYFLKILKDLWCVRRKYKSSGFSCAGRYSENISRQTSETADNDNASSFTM", "assay": "CCR6 receptor antagonists, dose response, cell-based, luminescent beta-arrestin readout (AID 504728)", "assay_type": "functional"}, "Chaperone protein dnaK": {"target": "Chaperone protein dnaK (Escherichia coli, UniProt C3TRK2)", "sequence (C3TRK2 whole entry)": "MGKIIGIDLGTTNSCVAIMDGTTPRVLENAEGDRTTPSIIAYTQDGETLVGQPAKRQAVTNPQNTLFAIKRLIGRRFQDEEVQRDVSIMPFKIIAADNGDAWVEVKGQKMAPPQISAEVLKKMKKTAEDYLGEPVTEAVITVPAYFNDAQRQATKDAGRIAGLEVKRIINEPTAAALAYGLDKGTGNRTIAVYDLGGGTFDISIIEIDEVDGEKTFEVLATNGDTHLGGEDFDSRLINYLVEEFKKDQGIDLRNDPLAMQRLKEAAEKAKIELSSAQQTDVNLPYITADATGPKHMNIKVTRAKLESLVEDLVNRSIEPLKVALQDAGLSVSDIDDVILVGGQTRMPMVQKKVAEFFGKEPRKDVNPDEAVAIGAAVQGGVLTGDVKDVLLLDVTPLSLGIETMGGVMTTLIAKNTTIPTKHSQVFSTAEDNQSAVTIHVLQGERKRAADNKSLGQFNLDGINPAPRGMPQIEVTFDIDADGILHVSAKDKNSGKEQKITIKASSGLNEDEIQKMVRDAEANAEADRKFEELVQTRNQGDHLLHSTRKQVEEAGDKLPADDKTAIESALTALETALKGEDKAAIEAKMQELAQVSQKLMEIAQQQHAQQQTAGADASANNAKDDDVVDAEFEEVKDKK", "assay": "DnaK beta-domain binding affinity, SAR follow-up, orthogonal assay for DnaK modulator project, biophysical, isothermal titration calorimetry, full-length DnaK (AID 1495)"}}, "note": "The source made the active and inactive calls.", "data": [{"smiles": "CCCCS(=O)(=O)/C=C\\C=C/S(=O)(=O)CCCC", "values": [{"measurement": "EC50", "setting": "Wee1-like protein kinase", "result": "> 49.7 µM (not active)"}, {"measurement": "AC50", "setting": "INS1", "result": "3.25 µM (active)"}, {"measurement": "IC50", "setting": "[1]", "result": "52.6 µM (inactive)"}, {"measurement": "IC50", "setting": "[2]", "result": "13.7 µM (not active)"}, {"measurement": "IC50", "setting": "[3]", "result": "4.5 µM (active)"}, {"measurement": "EC50", "setting": "[4]", "result": "> 5.53 µM (active)"}, {"measurement": "CC50", "setting": "[5]", "result": "3.13 µM (active)"}, {"measurement": "IC50", "setting": "[6]", "result": "1.28 µM (active)"}, {"measurement": "EC50", "setting": "[7]", "result": "3.04 µM (active)"}, {"measurement": "CC50", "setting": "HeLa", "result": "9.43 µM (active)"}, {"measurement": "IC50", "setting": "[8]", "result": "3.67 µM (active)"}, {"measurement": "EC50", "setting": "Beta-galactosidase [9]", "result": "> 40 µM (inactive)"}]}, {"smiles": "O=C(c1cc(-c2ccco2)nc2ccccc12)N1CCC(c2ccccc2)CC1", "values": [{"measurement": "IC50", "setting": "[10]", "result": "> 56.8 µM (inactive)"}]}, {"smiles": "NC(=O)c1c(N)sc2c1CCCCCCCCCC2", "values": [{"measurement": "Ki", "setting": "[11]", "result": "39.8 µM (inactive)"}]}, {"smiles": "O=C1C(Br)=C(c2ccccc2)C(c2ccccc2)=C1c1ccccc1", "values": [{"measurement": "AC50", "setting": "[12]", "result": "4.75 µM (active)"}, {"measurement": "IC50", "setting": "Beta-galactosidase [13]", "result": "> 66.6 µM (inactive)"}, {"measurement": "AC50", "setting": "[14]", "result": "38.8 µM (active)"}, {"measurement": "AC50", "setting": "[15]", "result": "460 nM (active)"}, {"measurement": "IC50", "setting": "[16]", "result": "> 66.6 µM (inactive)"}]}, {"smiles": "O=C(NCc1cccc2ccccc12)c1cccs1", "values": [{"measurement": "Kd", "setting": "Chaperone protein dnaK", "result": "1.7 µM (active)"}]}]}
